Test results: patent publication US9457037B2, “Combination composition, comprising as active ingredients L-carnitine or propionyl L-carnitine, for the prevention or treatment of chronic venous insufficiency” (SIGMA-TAU INDUSTRIE FARMACEUTICHE RIUNITE S.P.A., priority 2010, dated 2016)

Legend:
[1] = system: isolated aorta from spontaneously hypertensive rats; experiment: Relaxant effect on aortic rings precontracted by phenylephrine; set-up: species or system rat; conditions: 100 micro-molar each component, final concentration in organ chamber; rings precontracted by phenylephrine (1 micromolar); n=8
Experimental: The objective of this study was to investigate the vasoarelaxation effects of the compositions of the invention using isolated aorta from spontaneously hypertensive rats. The compounds tested were used at a concentration expressed as final concentration in the organ chamber. Male spontaneously hypertensive rats (SHR) 10-12 weeks old, weighing 250-300 g, were housed at 24±2° C. with 60±20% relative humidity, on a 12-h light-dark cycle. Rats were given free access to a diet of standard food and water. All experiments were performed according to the guidelines for the ethical treatment of animals of the European Union. The rats were killed by cervical dislocation and the aortae were rapidly dissected. […] Aortic rings were mounted under a basal tension of 2 g in 20 mL organ baths containing PSS and attached to an isometric transducer (Harvard UF-1); the signal was recorded by a Powerlab data acquisition system (AD-Instruments). […] The relaxant effect of compounds tested was assessed by adding the compound to aortic rings precontracted by phenylephrine (1 micromolar). […] All the results were expressed as a percentage of the maximal contraction of phenylephrine-induced responses. Results are expressed as percentages from the initial precontraction level. The significance was calculated on the actual contraction values means±SE (n=8 aorta preparations per group). […]

[2] = system: recto-anus swelling induced by croton oil; experiment: Croton oil-induced hemorrhoid model in rats (swelling of the recto-anus, RAC); format: in vivo, rat; conditions: with croton oil (3%) induction, 24 h after induction; oral once per day for five days; 20 mg/kg carnitines, 30 mg/kg flavonoids; male SD rats, n = 5
Experimental: Male SD rats (6 weeks old, approximately 140 g) were purchased from Harlan Sprague Dawley and allowed to acclimate for 1 week. The rats were maintained in a pathogen-free facility in accordance with the National Research Council of Laboratory Animal care and use guidelines. Each experiment was preformed with age-matched rats 7-8 weeks old. The croton oil-induced hemorrhoid model in rats was performed according to the method published by Nishiki (Nishiki et al. (1988) Folia Pharmacology Japan 92:215-225; Nishiki et al. (1988) Folia Pharmacol. Japan 92:227-240). Briefly, a cotton swab with a diameter of 4 mm soaked with 0.16 mL of inducer (deionized water:pyridine:ethyl ether:6% croton oil/ethyl ether (1:4:5:10) was applied to the rat's anus for 12 seconds. The final concentration of croton oil was 3%. The edema developed linearly until 7-8 hours after application and the severity of the edema was sustained for more than 24 hours. Twenty-four hours later, recto-anus tissue (approx. 10 mm long) was isolated after the rats were euthanized. The weights of rat body and recto-anus were measured. The recto-anus coefficient (RAC) was calculated using the formula: weight of recto-anus (mg)/body weight (g). […]
Twenty-four hours after hemorrhoid induction with croton oil the RAC of rats was determined.

SMILES | % RELAXATION [1] [%] | RAC (recto-anus coefficient: weight of recto-anus (mg)/body weight (g)) [2]
COc1ccc([C@@H]2CC(=O)c3c(O)cc(O[C@@H]4O[C@H](CO[C@@H]5O[C@@H](C)[C@H](O)[C@@H](O)[C@H]5O)[C@@H](O)[C@H](O)[C@H]4O)cc3O2)cc1O [Hesperidine, hesperidine] | 9 | 2.07
CCC(=O)O[C@H](CC(=O)[O-])C[N+](C)(C)C [Propionyl L-carnitine, propionyl L-carnitine] | 28 | 1.96
